# From patent US9089572B2, “Inhibitors of p97” (California Institute of Technology, priority 2008, dated 2015)
# Where a SMILES comes first, the peptide text is derived from it. The star is where a group is joined. Cbz = O=C(OCc1ccccc1)*
# How the values were obtained:
# Ub-G76V-GFP/HeLa cells = test: Degradation of pre-accumulated Ub-G76V-GFP (cycloheximide chase after MG132 washout); type: cell-based; conditions: for % K: relative to 0 μM; for IC50: Homo sapiens, HeLa, 1 h, read-out: IC50 on the decay of Ub-G76V-GFP
# Method: To evaluate this possibility, an assay was developed to determine the rate of degradation of pre-accumulated Ub-G76V-GFP molecules. […] Cells were then washed with PBS three times remove the MG132. Cells were then refreshed by adding DMEM containing cycloheximide (50 μg/mL; to block production of more Ub-G76V-GFP) and test compounds (0˜10 μM) were added into cells. Eight 96-well plates were prepared and one of the plates was imaged at 25, 50, 70, 100, 110, 125, 145, or 170 min after washing with PBS three times. After washing out MG132, degradation of pre-accumulated Ub-G76V-GFP appears to follow pseudo-first order reaction. Rate constant (K; 1/min) can be determined from the slope of plotting Ln (Fold Accumulation) versus Time (min) (see FIG. 17 and FIG. 18).
# Ub-G76V-GFP/HeLa cells were treated with MG132 (2 μM) for 1 h and washed with PBS three times. DMEM containing cycloheximide (50 μg/mL) and compound 8 (0-10 μM) was added into cells. Eight 96-well plates were prepared and one of the plates was imaged at 25, 50, 70, 100, 110, 125, 145, or 170 min after washing with PBS three times.
# [1] = tested on: HeLa cell line that stably expresses UbG76V-GFP; test: Accumulation of UbG76V-GFP in HeLa cells (fluorescence microscopy); type: cell-based; conditions: fluorescence microscopy
# Method: As a control, the same cells were treated with the proteasome inhibitor MG132. In the latter set of experiments, a HeLa cell line that stably expresses UbG76V-GFP was transfected with either wild type (WT), D1 mutant (E305Q), D2 mutant (E578Q) or E305Q, E578Q double mutant (QQ) murine 97-pcDNA4.1 plasmid (0.05 μg/100 μL) in a 96-well plate. After 23 h, the intensity of UbG76V-GFP signal was measured on a Molecular Devices ImageXpress automated fluorescence microscope. […] The direct accumulation of Ub-G76V-GFP caused by compound 2 at 25 μM is 4-fold less than that caused by MG132 at 2 μM. This is likely due to the fact that only fully folded Ub-G76V-GFP should require p97 for degradation by the proteasome.
# As a second test of whether compound 8 can inhibit p97 in vivo, it was evaluated whether it can cause accumulation of the UbG76V-GFP reporter. A HeLa cell line that stably expresses UbG76V-GFP was treated with compound 8 for 1 h at 37° C., and was then evaluated by fluorescence microscopy. As a control, the same cells were treated with the proteasome inhibitor MG132. […] The level of GFP fluorescence was quantified in cells treated with compound 8 at different doses and for different periods of time (FIG. 28).
# [2] = tested on: HEK293 cells that stably expressed TCR-GFP; test: Accumulation of ERAD reporter TCR-alpha-GFP; type: cell-based; conditions: 2 h at 37° C., fluorescence microscopy
# Method: Since p97 has a well-established role in ERAD, it was also determined whether compound 2 affects the accumulation of an ERAD-reporter, TCR-alpha-GFP. HEK293 cells that stably expressed TCR-GFP were treated with MG132 (see FIG. 19), compound 1 or compound 2 (FIG. 20) at the indicated concentrations for 2 h at 37° C. prior to being imaged by fluorescence microscopy to determine TCR-GFP accumulation. […] It was thus concluded that compound 2 inhibits p97 in cells, resulting in the accumulation of both soluble and insoluble high molecular weight ubiquitin conjugates and UPS substrates whose degradation depends upon p97.
# HEK293 cells that stably expressed TCR-GFP were treated with the Velcade (FIG. 30) or compound 8 (FIG. 31) at the indicated concentrations for 2 h at 37° C. prior to being imaged by fluorescence microscopy to quantify TCR-GFP accumulation.
# MRC5-WT = test: CellTiter-Glo growth inhibition, parental MRC5 cells; type: cell-based; conditions: Homo sapiens, 48 h at 37° C., read-out: Cell line inhibition of growth GI50 MRC5-WT
# MRC5-SV40 = test: CellTiter-Glo growth inhibition, MRC5 cells engineered to express SV40; type: cell-based
# wild type p97 = wild type p97 (Mus musculus, UniProt Q01853); test: ATP Kinase glo assay of p97 ATPase activity; type: biochemical
# Method: An assay that measures the ATPase activity of p97 and that is amenable to high-throughput screening (HTS) was developed based on the commercially-available “Kinase-Glo” assay format, wherein the ATP hydrolytic activity of p97 is monitored by using luciferase to measure the level of residual ATP in a sample following incubation with p97. Using this assay, circa 16,000 compounds were screened to evaluate their effect on the ATP hydrolysis activity of p97. This effort yielded several candidates that inhibit p97 activity. Among the compounds that were identified, one that was of particular interest was compound 8 (9-(2-nitrovinyl) anthracene shown below:
# It was shown that a key feature of compound 8 is that its mode of inhibition is dependent upon the presence of a cysteine at position 522 in the D2 domain of p97.
# HeLa cells = test: Accumulation of high molecular weight ubiquitin conjugates (anti-ubiquitin immunoblot), HeLa cells; type: cell-based; conditions: 1 h at 37° C.
# Excerpt: (§1) To evaluate whether compound 2 can target p97 activity in cells, we sought to determine whether this compound induces accumulation of high molecular weight ubiquitin conjugates, since it is known that RNAi-mediated knockdown of p97 in mammalian cells has this effect (Wojcik, C. et al. J. Cell Sci. (2004) 117, 281-292). As a positive control for this experiment, the proteasome inhibitor MG132 was used. […] The cells were then harvested, lysed, and centrifuged to generate soluble and insoluble fractions. These fractions were then immunoblotted with anti-ubiquitin antibodies to detect accumulation of high molecular weight conjugates. Blots were also probed with anti-PSTAIRE antibodies as a loading control. […] This effect is particularly pronounced in the insoluble fraction.
# (§2) To evaluate whether compound 8 can target p97 activity in cells, it was determined whether this compound induces accumulation of high molecular weight ubiquitin conjugates, since it is known that RNAi-mediated knockdown of p97 in mammalian cells has this effect (Wojcik, C. et al. J. Cell Sci. (2004) 117, 281-292). The proteasome inhibitor bortezomib (velcade) was employed as a positive control for this experiment. HeLa (FIG. 25) or RPMI8226 (FIG. 26) cells were treated with Velcade, compound 8, or a combination thereof for 1 h at 37° C. The cells were then harvested and cell lysates were immunoblotted with anti-ubiquitin antibodies to detect accumulation of high molecular weight conjugates. Blots were also probed with anti-PSTAIRE antibodies as a loading control.
# RPMI8226 cells = test: Accumulation of high molecular weight ubiquitin conjugates (anti-ubiquitin immunoblot), RPMI8226 cells; type: cell-based; conditions: 1 h at 37° C.
# Excerpt: as §1, §2
# Chain of wild type p97 (Q01853 whole entry): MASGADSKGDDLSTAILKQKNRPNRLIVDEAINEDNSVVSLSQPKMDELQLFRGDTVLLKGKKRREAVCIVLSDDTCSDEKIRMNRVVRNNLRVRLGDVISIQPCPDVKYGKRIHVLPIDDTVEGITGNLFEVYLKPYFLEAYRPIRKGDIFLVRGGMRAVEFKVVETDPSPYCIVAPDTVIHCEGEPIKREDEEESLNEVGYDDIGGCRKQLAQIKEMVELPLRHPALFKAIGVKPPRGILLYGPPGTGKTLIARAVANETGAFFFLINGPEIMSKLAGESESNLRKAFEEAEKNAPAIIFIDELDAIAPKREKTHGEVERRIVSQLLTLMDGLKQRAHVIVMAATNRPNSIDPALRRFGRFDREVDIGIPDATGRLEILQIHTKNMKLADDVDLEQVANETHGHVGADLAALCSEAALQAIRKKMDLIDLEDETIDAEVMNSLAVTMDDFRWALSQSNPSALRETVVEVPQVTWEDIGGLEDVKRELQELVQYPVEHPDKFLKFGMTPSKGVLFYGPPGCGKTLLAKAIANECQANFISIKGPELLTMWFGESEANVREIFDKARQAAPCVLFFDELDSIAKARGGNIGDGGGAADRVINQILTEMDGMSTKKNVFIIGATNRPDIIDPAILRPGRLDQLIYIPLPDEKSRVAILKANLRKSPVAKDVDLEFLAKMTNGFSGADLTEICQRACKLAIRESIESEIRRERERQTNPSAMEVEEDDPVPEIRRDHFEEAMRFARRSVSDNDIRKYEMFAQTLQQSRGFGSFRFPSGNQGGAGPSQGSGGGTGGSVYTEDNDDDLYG
SMILES,"K, rate constant of Ub-G76V-GFP degradation (Ub-G76V-GFP/HeLa cells; 0.01 μM) [min⁻¹]",% K (Ub-G76V-GFP/HeLa cells; 0.01 μM) [%],"K, rate constant of Ub-G76V-GFP degradation (Ub-G76V-GFP/HeLa cells; 0.04 μM) [min⁻¹]",% K (Ub-G76V-GFP/HeLa cells; 0.04 μM) [%],"K, rate constant of Ub-G76V-GFP degradation (Ub-G76V-GFP/HeLa cells; 0.16 μM) [min⁻¹]",% K (Ub-G76V-GFP/HeLa cells; 0.16 μM) [%],"K, rate constant of Ub-G76V-GFP degradation (Ub-G76V-GFP/HeLa cells; 0.63 μM) [min⁻¹]",% K (Ub-G76V-GFP/HeLa cells; 0.63 μM) [%],"K, rate constant of Ub-G76V-GFP degradation (Ub-G76V-GFP/HeLa cells; 2.5 μM) [min⁻¹]",% K (Ub-G76V-GFP/HeLa cells; 2.5 μM) [%],"K, rate constant of Ub-G76V-GFP degradation (Ub-G76V-GFP/HeLa cells; 10 μM) [min⁻¹]",% K (Ub-G76V-GFP/HeLa cells; 10 μM) [%],IC50 (Ub-G76V-GFP/HeLa cells) [µM],accumulation of UbG76V-GFP ([1]; 1 h at 37° C.),further results
"CC(C)C[C@@H](C=O)NC(=O)[C@H](CC(C)C)NC(=O)[C@H](CC(C)C)NC(=O)OCc1ccccc1 [MG132, reference compound] (Cbz-Leu-Leu-Leu-aldehyde)",0.0336,88,0.0322,84,0.0260,68,0.0095,25,0.0005,1,0.0009,2,0.24 ± 0.04,caused detectable accumulation of UbG76V-GFP,accumulation of UbG76V-GFP ([1]; 4 hours at 37° C.): caused accumulation of UbG76V-GFP
"O=[N+]([O-])C=Cc1c2ccccc2cc2ccccc12 [Compound 8, 9-(2-nitrovinyl) anthracene]",0.034,89,0.033,87,0.032,85,0.031,81,0.027,71,0.023,60,10 ± 4,caused detectable accumulation of UbG76V-GFP,"accumulation of TCR-alpha-GFP [2]: induced accumulation of the ERAD reporter, TCR-alpha-GFP; GI50 (MRC5-WT): 17 ± 9 µM; GI50 (MRC5-SV40; Homo sapiens, MRC5, 48 h at 37° C., CellTiter-Glo, read-out: Cell line inhibition of growth GI50 MRC5-SV40): 5 ± 3 µM; greater sensitivity of SV40-transformed cells than WT cell line (MRC5-SV40; MRC5-SV40 vs MRC5-WT GI50): 3.4 fold; inhibition of wild type p97 compared with the C522A-p97 mutant (wild type p97): significantly greater degree; accumulation of high molecular weight ubiquitin conjugates, HeLa cells (HeLa cells): caused accumulation of high molecular weight ubiquitin conjugates; accumulation of high molecular weight ubiquitin conjugates, RPMI8226 cells (RPMI8226 cells): caused accumulation of high molecular weight ubiquitin conjugates"
